Results as given in patent US20240325370A1, “THERAPEUTIC REGIMENS OF A DEGRADER OF BRD9” (FOGHORN THERAPEUTICS INC., priority 2021, published 2024).
Entries after “also recorded” stand apart in the source; their conditions may differ.

Legend:
[1] = system: SYO-1 tumor; experiment: Intermittent dosing schedules, IV, SYO-1 xenograft efficacy; assay type: in vivo, mice; conditions: for Tumor Size (mm^3) on Day 24: SYO-1 tumor-bearing NOD SCID mice, Mean ± SEM
Description: The objective of this study was to provide proof-of-concept of anti-tumor efficacy with intermittent dosing schedules for compound S-D1 by IV administration. Groups of female SYO-1 tumor-bearing NOD SCID mice (n=10/group) were dosed IV with vehicle, compound D1 or compound S-D1 for 24 days according to treatments and dosing schedules shown in Table 10. Compound D1 was formulated in 10% DMSO/40% PEG400/50% water and compound S-D1 was formulated in 20% SBECD in 5 mM citrate buffer, final pH was adjusted to 5 with 1 N NaOH. For the compound S-D1 treatment groups, plasma samples were collected at designated time points following the last dosing. Plasma samples were acidified to stabilize the compound right after collection and analyzed for compound S-D1 concentrations.

[2] = target: T1, endogenous BRD9 (Homo sapiens, UniProt Q9H8M2); experiment: Western blot dose response of endogenous BRD9 degradation in cancer cell lines of different lineage; assay type: cell-based; conditions: for potency of endogenous BRD9 degradation (western blot): 6 hours
T1 sequence (Q9H8M2 1-597): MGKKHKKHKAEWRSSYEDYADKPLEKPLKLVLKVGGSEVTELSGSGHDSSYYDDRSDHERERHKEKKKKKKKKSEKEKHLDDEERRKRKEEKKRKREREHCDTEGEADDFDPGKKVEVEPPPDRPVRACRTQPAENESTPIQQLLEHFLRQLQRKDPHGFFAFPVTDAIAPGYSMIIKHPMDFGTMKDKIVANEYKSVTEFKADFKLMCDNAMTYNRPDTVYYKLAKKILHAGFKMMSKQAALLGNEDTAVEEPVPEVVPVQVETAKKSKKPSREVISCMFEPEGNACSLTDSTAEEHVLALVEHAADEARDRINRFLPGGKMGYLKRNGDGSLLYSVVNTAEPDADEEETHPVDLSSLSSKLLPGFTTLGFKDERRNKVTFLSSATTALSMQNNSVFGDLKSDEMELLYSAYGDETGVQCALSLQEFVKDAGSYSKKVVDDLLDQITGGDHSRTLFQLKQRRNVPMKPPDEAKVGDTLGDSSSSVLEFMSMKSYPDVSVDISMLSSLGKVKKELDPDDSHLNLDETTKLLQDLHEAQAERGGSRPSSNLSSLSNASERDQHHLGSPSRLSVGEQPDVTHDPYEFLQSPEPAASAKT
Description: Compound D1 and Compound S-D1 Dose Response Experiments in Multiple Cell Lines of Different Lineage. To evaluate the efficacy of compound S-D1 ((S)-enantiomer) and compound D1 (racemic) to degrade BRD9 across different cancer lineages (listed in Table 19), dose response experiments were performed in SYO-1, EOL-1, MD-MBA-231, OVCAR8, and PC-9 cell lines. After cell treatment, BRD9 protein levels were assessed by western blot analyses.
Cells grown in flasks to log phase growth were washed with PBS and dissociated by adding TrypLE™ Express (Foghorn) or Trypsin-EDTA 0.25% (Pharmaron). Collected cells were resuspended in their respective cell culture media, counted, and seeded at the indicated cell density in 6-well plates. Two wells were allocated per sample. Plates were incubated at 37° C. with 5% CO2 overnight.
The next day, compound was added to a final concentration as indicted in FIGS. 32B, 32C, and 32D with 3-fold dilution steps, with the final DMSO content of 0.1% (v/v) matching the untreated control. After 6 hours of incubation, cells were harvested, resuspended in PBS, and centrifuged at 5,000 rpm for 5 minutes. After being washed twice with PBS, the resulting cell pellets were stored at −80° C.
Cell lines and cell treatment procedures are highlighted in Table 19 and specific details about western blot procedures are listed in Table 20. The western blot procedure was as described above.

[3] = target: T2, BRD9 (Homo sapiens, UniProt Q9H8M2); experiment: Pharmacodynamic activity in SYO-1 xenograft model (tumor BRD9 western blot); assay type: in vivo, mice; design: from tissue; host or cells: SYO-1 xenograft tumours in BALB/c nude or NOD SCID mice; conditions: for BRD9 protein levels depleted by: 20% SBECD
T2 sequence (Q9H8M2 1-597): T1 sequence (Q9H8M2 1-597)
Description: Method. The SYO-1 tumor cells were maintained in vitro as adherent cells in Dulbecco's Modified Eagle Medium (DMEM) supplemented with 10% fetal bovine serum at 37° C. in an atmosphere of 5% CO2 in air. The cells growing in an exponential growth phase were harvested and counted for tumor inoculation. BALB/c Nude mice (Shanghai Lingchang biological science) were inoculated subcutaneously on the right flank with (5×10^6) in 0.1 mL of phosphate buffered saline (PBS). The treatment-(described in table 6)—was started on day 19 after tumor inoculation, when the average tumor size reached 499 mm^3.
Mice were treated with racemic D1, 1 mg/kg, i.p. for 4 weeks, mice were euthanized, and tumors collected 1, 4, 8, 24, 48 and 72-hour post last dose. Tumors were lysed with 1×RIPA lysis buffer (Boston BioProducts, BP-115D) with protease and phosphatase protein inhibitor (Roche Applied Science #04906837001 & 05892791001). Equal amount of lysate (30 ug) were loaded in 4-12% Bis-Tris Midi Protein Gels in 1×MOPS buffer; samples ran at 120 V for 120 min. Proteins was transferred to membrane (NC) with TransBlot at 250 mA for 150 minute, then membranes were blocked with Odyssey Blocking buffer for 1 hour at room temperature. Membranes were hybridized overnight in cold room with primary antibodies. Images acquired using Li-COR imaging system (Li-COR Biotechnology, Lincoln, Nebraska).
Further study. The other study examined a range of compound D1 dose levels (0.05, 0.25, 1 or 5 mg/kg) formulated in a vehicle of 20% SBECD for tumor BRD9 protein levels up to 144 hours post dose. […] BRD9 protein levels were still depleted by 83.4% and 73.2% at 120 hours (5 days) and 144 hours (6 days), respectively, after a single IV administration of 5 mg/kg of compound D1, which corresponds to ˜2.5 mg/kg of compound S-D1.

[4] = 1 mg/kg BIW IV, 24 days (compound D1)
[5] = 1 mg/kg BIW IV, 24 days (compound S-D1)

Structure (SMILES)	T/C (%) [1, 4]	TGI (%) [1, 4]	Tumor Size (mm^3) on Day 24 ([1]; 1 mg/kg BIW IV, 24 days)	potency of endogenous BRD9 degradation (western blot) ([2]; MDA-MB-231 (breast cancer), OVCAR8 (ovarian cancer) and EOL1 cells)	potency of endogenous BRD9 degradation (western blot) ([2]; PC-9 (EGFR mutant lung cancer) cells)	tumor BRD9 protein level response ([3]; 0.05, 0.25, 1 or 5 mg/kg, up to 144 hours post dose)	BRD9 protein levels depleted by ([3]; 120 hours (5 days) after a single IV administration of 5 mg/kg)	BRD9 protein levels depleted by ([3]; 144 hours (6 days) after a single IV administration of 5 mg/kg)	T/C (%) ([1]; 0.05 mg/kg BIW IV, 24 days)	TGI (%) ([1]; 0.05 mg/kg BIW IV, 24 days)	Tumor Size (mm^3) on Day 24 ([1]; 0.05 mg/kg BIW IV, 24 days)	T/C (%) [1, 5]	TGI (%) [1, 5]	Tumor Size (mm^3) on Day 24 [1, 5]	T/C (%) ([1]; 2 mg/kg QW IV, 24 days)	TGI (%) ([1]; 2 mg/kg QW IV, 24 days)	Tumor Size (mm^3) on Day 24 ([1]; 2 mg/kg QW IV, 24 days)	tumor response ([1]; 0.25 or 1 mg/kg twice weekly IV, SYO-1 tumor)	BRD9 degradation activity when proteasome blocked ([2]; with 1 μM Bortezomib, a proteasome inhibitor (FIG. 32D, EOL-1 cells))	Pharmacodynamic activity: tumor BRD9 protein level by western blot ([3]; SYO-1 xenograft, BALB/c Nude mice, single dose i.v. (Table 6), listed as Enantiomer 2)
COc1cc(-c2cn(C)c(=O)c3cnc(N4CCC4)cc23)cc(OC)c1CN1CCC(CN2CCC3(CC2)CN(c2ccc4c(c2)C(=O)N(C2CCC(=O)NC2=O)C4)C3)CC1 (racemic) [Compound D1, 3-[6-(7-[[1-([4-[6-(azetidin-1-yl)-2-methyl-1-oxo-2,7-naphthyridin-4-yl]-2,6-dimethoxyphenyl]methyl)piperidin-4-yl]methyl]-2,7-diazaspiro[3.5]nonan-2-yl)-1-oxo-3H-isoindol-2-yl]piperidine-2,6-dione]	12.6%	87.4%	426 ± 49 mm^3	comparable potency	reduced potency	robust and dose- and time-dependent	83.4%	73.2%	–	–	–	–	–	–	–	–	–	–	–	–
COc1cc(-c2cn(C)c(=O)c3cnc(N4CCC4)cc23)cc(OC)c1CN1CCC(CN2CCC3(CC2)CN(c2ccc4c(c2)C(=O)N([C@H]2CCC(=O)NC2=O)C4)C3)CC1 (single isomer, unassigned) [Compound S-D1]	–	–	–	–	–	–	–	–	58.2%	41.8%	1946 ± 123 mm^3	8.1%	91.9%	280 ± 37 mm^3	10.1%	89.9%	341 ± 38 mm^3	tumor stasis	largely abrogated	significant activity; also recorded: degraded BRD9 up to 72 hours after a single dose; also recorded: equipotent to racemic compound D1
